According to patent US4002623A, “Anti-inflammatory 1-[3-(dialkylamino)propyl]-2-acylaminobenzimidazoles and 2-acylamino-3-[3-(dialkylamino)-propyl]imidazo[4,5-b]pyridines” (Pfizer Inc., priority 1974, dated 1977):
Like-named read-outs stand apart in the source and are kept apart here.

Experiment: adjuvant arthritis screen (Walz et al.), swelling of the non-injected left hind foot on Day 16
Format: in vivo, male inbred Lewis rats
Conditions: Rattus norvegicus, 384 h, daily day -1 through day 15, read-out: Activity Percent Inhibition; for inhibition in vivo at 20 mg/kg: 20 mg./kg. po
Text: The adjuvant arthritis test described by Walz et al., Ann. Rheum. Dis., 30, 303 (1971) was selected as the method of choice for the determination of the extent of which the novel compounds of the present invention are therapeutically effective as anti-inflammatory agents. Adjuvant arthritis is a crippling deformity in rats resulting from diffuse connective tissue involvement. It is considered by some authorities to be the best available experimental animal model of human rheumatoid arthritis because of its strong clinical and pathological similarities to the human disease and because it can be effectively treated with known anti-arthritic drugs. In this test, lesions resembling those of human rheumatoid arthritis are induced by the injection of complete Freund's adjuvant into one hind leg of a rat. A vigorous inflammatory response occurs in the injected hind leg and reaches its greatest size in about four days. This primary response is followed by the development of a second inflammatory response, appearing about 12-16 days post-injection, that occurs in the uninjected hind leg. While the compounds of the invention are capable of inhibiting the degree of inflammation in both legs, the inhibition of swelling in the uninjected leg at 16 days is considered to be the more meaningful measure of antiarthritic activity.
The adjuvant arthritis screen as described by Walz et al. (Ann. Rheum. Dis., 30: 303 (1971), was used to evaluate the above prepared compounds.
The screen is conducted using male inbred Lewis rats weighing approximately 250 gm. The animals are dosed with drug beginning on day- 1 and continuing daily through day 15. On Day 0, the subplanter surface of the right hind paw is injected with 0.1cc of a 1% suspension of Mycobacterium butyricum (Freunds adjuvant) in Primol (Esso). The swelling of the non-injected left hind foot on Day 16, resulting from immune response to adjuvant, was determined for dosed animals and controls. The foot volume is measured by immersing the paw to the anatomical hairline into a mercury reservoir which is connected to a Statham pressure transducer and a recording device. The results are expressed as % inhibition calculated according to the following equation: [formula] The results obtained are as follows for [drawing 22] where Z is --N(CH3)2 and X is carbon: […]

Cc1cc2nc(NC(=O)c3cccc(C(F)(F)F)c3)n(CCCN3CCN(C)CC3)c2cc1C
inhibition in vivo at 20 mg/kg: 22%

CN(C)CCCn1c(NC(=O)c2cccc(C(F)(F)F)c2)nc2ccccc21
inhibition in vivo at 33 mg/kg (33 mg./kg. ip): 21%

CN1CCN(CCCn2c(NC(=O)c3cccc(C(F)(F)F)c3)nc3cc(S(=O)(=O)N(C)C)ccc32)CC1
inhibition in vivo at 20 mg/kg: 22%

CN1CCN(CCCn2c(NC(=O)c3ccc(Cl)c(Cl)c3)nc3cc(S(=O)(=O)N(C)C)ccc32)CC1
inhibition in vivo at 20 mg/kg: 31%

CN1CCN(CCCn2c(NC(=O)c3cc(C(F)(F)F)cc(C(F)(F)F)c3)nc3ccccc32)CC1
inhibition in vivo at 20 mg/kg: 32%

Cc1cc2nc(NC(=O)c3ccc(C(F)(F)F)cc3)n(CCCN3CCN(C)CC3)c2cc1C
inhibition in vivo at 20 mg/kg: 29%

CN1CCN(CCCn2c(NC(=O)c3ccc(C(F)(F)F)cc3)nc3cc(S(=O)(=O)N(C)C)ccc32)CC1
inhibition in vivo at 20 mg/kg: 34%

CN1CCN(CCCn2c(NC(=O)C34CC5CC(CC(C5)C3)C4)nc3ccccc32)CC1 [1-Adamantyl; H; H; drawing 24]
inhibition in vivo at 33 mg/kg (33 mg./kg. ip): 28%

CN(C)CCCn1c(NC(=O)c2ccccc2Cl)nc2ccccc21 [2-Chlorophenyl; H; H; Z = N(CH3)2]
inhibition in vivo at 33 mg/kg (33 mg./kg. ip): 15%

CN(C)CCCn1c(NC(=O)C=Cc2ccccc2Cl)nc2ccccc21 [2-Chlorostyryl; H; H; Z = N(CH3)2]
inhibition in vivo at 33 mg/kg (33 mg./kg. ip): 45%

O=C(Nc1nc2ccccc2n1CCCN1CCOCC1)c1ccccc1F [2-Fluorophenyl; H; H; drawing 23]
inhibition in vivo at 33 mg/kg (33 mg./kg. ip): 6%

CN1CCN(CCCn2c(NC(=O)c3ccco3)nc3ccccc32)CC1 [2-Furyl; H; H; drawing 24, 1-[3-(4-methyl-1-piperazinyl)propyl]-2-(2-furamido)-benzimidazole]
inhibition in vivo at 20 mg/kg: 43%

Cc1cc2nc(NC(=O)c3ccc(Cl)c(Cl)c3)n(CCCN3CCN(C)CC3)c2cc1C [3,4-Dichlorophenyl; CH3; CH3; drawing 24]
inhibition in vivo at 20 mg/kg: 18%

Cc1ccc2nc(NC(=O)c3ccc(Cl)c(Cl)c3)n(CCCN3CCN(C)CC3)c2c1 [3,4-Dichlorophenyl; H; CH3; drawing 24]
inhibition in vivo at 20 mg/kg: 22%

CN(C)CCCn1c(NC(=O)c2ccc(Cl)c(Cl)c2)nc2ccccc21 [3,4-Dichlorophenyl; H; H; Z = N(CH3)2]
inhibition in vivo at 10 mg/kg (10 mg./kg. po): 13%
inhibition in vivo at 33 mg/kg (33 mg./kg. ip): 67%

CN1CCN(CCCn2c(NC(=O)c3ccc(Cl)c(Cl)c3)nc3ccccc32)CC1 [3,4-Dichlorophenyl; H; H; drawing 24, 1-[3-(4-methyl-1-piperazinyl)propyl]-2-(3,4-dichlorobenzamido)benzimidazole]
inhibition in vivo at 10 mg/kg (10 mg./kg. po): 32%
inhibition in vivo at 33 mg/kg (33 mg./kg. ip): 61%

CN1CCN(CCCn2c(NC(=O)c3ccc(Cl)c(Cl)c3)nc3cccnc32)CC1 [3,4-Dichlorophenyl; H; H; drawing 25, 2-(3,4-dichlorobenzamido)-3-[4-(methyl-1-piperazino)-propyl]imidazo[4,5-b]pyridine]
inhibition in vivo at 10 mg/kg (10 mg./kg. po): 27%
inhibition in vivo at 20 mg/kg: 41%

O=C(Nc1nc2ccccc2n1CCCN1CCCCC1)c1ccc(Cl)c(Cl)c1 [3,4-Dichlorophenyl; H; H; drawing 26]
inhibition in vivo at 33 mg/kg (33 mg./kg. ip): 25%

O=C(Nc1nc2ccccc2n1CCCN1CCN(Cc2ccccc2)CC1)c1ccc(Cl)c(Cl)c1 [3,4-Dichlorophenyl; H; H; drawing 27]
inhibition in vivo at 10 mg/kg (10 mg./kg. ip): 19%

COc1ccc2c(c1)nc(NC(=O)c1ccc(Cl)c(Cl)c1)n2CCCN1CCN(C)CC1 [3,4-Dichlorophenyl; OCH3; H; drawing 24, 1-[3-(4-methyl-1-piperazinyl)propyl]-2-(3,4-dichlorobenzamido)-5-methoxybenzimidazole]
inhibition in vivo at 10 mg/kg (10 mg./kg. po): 35%

CN1CCN(CCCn2c(NC(=O)c3cc(Cl)cc(Cl)c3)nc3ccccc32)CC1 [3,5-Dichlorophenyl; H; H; drawing 24]
inhibition in vivo at 33 mg/kg (33 mg./kg. ip): 31%

CN1CCN(CCCn2c(NC(=O)c3cccc(Cl)c3)nc3cc(C(F)(F)F)ccc32)CC1 [3-Chlorophenyl; CF3; H; drawing 24, 1-[3-(4-methyl-1-piperazinyl)propyl]-2-(3-chlorobenzamido)-5-trifluoromethylbenzimidazole]
inhibition in vivo at 20 mg/kg: 45%
inhibition in vivo at 33 mg/kg (33 mg./kg. ip): 73%

Cc1ccc2c(c1)nc(NC(=O)c1cccc(Cl)c1)n2CCCN1CCN(C)CC1 [3-Chlorophenyl; CH3; H; drawing 24]
inhibition in vivo at 20 mg/kg: 29%

CN1CCN(CCCn2c(NC(=O)c3cccc(Cl)c3)nc3cc(Cl)c(Cl)cc32)CC1 [3-Chlorophenyl; Cl; Cl; drawing 24]
inhibition in vivo at 33 mg/kg (33 mg./kg. ip): 66%

CN1CCN(CCCn2c(NC(=O)c3cccc(Cl)c3)nc3cc(Cl)ccc32)CC1 [3-Chlorophenyl; Cl; H; drawing 24]
inhibition in vivo at 10 mg/kg (10 mg./kg. po): -5%
inhibition in vivo at 33 mg/kg (33 mg./kg. ip): 66%

Cc1ccc2nc(NC(=O)c3cccc(Cl)c3)n(CCCN3CCN(C)CC3)c2c1 [3-Chlorophenyl; H; CH3; drawing 24]
inhibition in vivo at 10 mg/kg (10 mg./kg. po): -5%
inhibition in vivo at 33 mg/kg (33 mg./kg. ip): 66%

CN(C)CCCn1c(NC(=O)c2cccc(Cl)c2)nc2ccccc21 [3-Chlorophenyl; H; H; Z = N(CH3)2]
inhibition in vivo at 33 mg/kg (33 mg./kg. ip): 33%

O=C(Nc1nc2ccccc2n1CCCN1CCOCC1)c1cccc(Cl)c1 [3-Chlorophenyl; H; H; drawing 23, 1-[3-(N-morpholino)propyl]-2-(3-chlorobenzamido)benzimidazole]
inhibition in vivo at 100 mg/kg (100 mg./kg. po): 32%

CN1CCN(CCCn2c(NC(=O)c3cccc(Cl)c3)nc3ccccc32)CC1 [3-Chlorophenyl; H; H; drawing 24]
inhibition in vivo at 33 mg/kg (33 mg./kg. ip): 46%

CN1CCN(CCCn2c(NC(=O)c3cccc(Cl)c3)nc3cccnc32)CC1 [3-Chlorophenyl; H; H; drawing 25]
inhibition in vivo at 20 mg/kg: 26%

O=C(Nc1nc2ccccc2n1CCCN1CCCCC1)c1cccc(Cl)c1 [3-Chlorophenyl; H; H; drawing 26]
inhibition in vivo at 33 mg/kg (33 mg./kg. ip): 34%

COc1ccc2c(c1)nc(NC(=O)c1cccc(Cl)c1)n2CCCN1CCN(C)CC1 [3-Chlorophenyl; OCH3; H; drawing 24]
inhibition in vivo at 10 mg/kg (10 mg./kg. po): -1%
inhibition in vivo at 33 mg/kg (33 mg./kg. ip): 59%

CN1CCN(CCCn2c(NC(=O)c3cccc(Cl)c3)nc3cc(S(=O)(=O)N(C)C)ccc32)CC1 [3-Chlorophenyl; SO2 N(CH3)2; H; drawing 24, 1-[3-(4-methyl-1-piperazinyl)propyl]-2-(3-chlorobenzamido)-5-(N,N-dimethylsulfonamido)benzimidazole]
inhibition in vivo at 10 mg/kg (10 mg./kg. po): 35%
inhibition in vivo at 33 mg/kg (33 mg./kg. po): 54%

CN1CCN(CCCn2c(NC(=O)c3cccc(F)c3)nc3ccccc32)CC1 [3-Fluorophenyl; H; H; drawing 24]
inhibition in vivo at 33 mg/kg (33 mg./kg. ip): 34%

O=C(Nc1nc2ccccc2n1CCCN1CCCCC1)c1cccc(F)c1 [3-Fluorophenyl; H; H; drawing 26]
inhibition in vivo at 33 mg/kg (33 mg./kg. ip): 27%

COc1cccc(C(=O)Nc2nc3cc(C(F)(F)F)ccc3n2CCCN2CCN(C)CC2)c1 [3-Methoxyphenyl; CF3; H; drawing 24]
inhibition in vivo at 33 mg/kg (33 mg./kg. ip): 46%

COc1cccc(C(=O)Nc2nc3cc(C)ccc3n2CCCN2CCN(C)CC2)c1 [3-Methoxyphenyl; CH3; H; drawing 24, 1-[3-(4-methyl-1-piperazinyl)propyl]-2-(3-methoxybenzamido)-5-methylbenzimidazole]
inhibition in vivo at 20 mg/kg: 37%

COc1cccc(C(=O)Nc2nc3cc(Cl)ccc3n2CCCN2CCN(C)CC2)c1 [3-Methoxyphenyl; Cl; H; drawing 24]
inhibition in vivo at 33 mg/kg (33 mg./kg. ip): 17%

COc1cccc(C(=O)Nc2nc3ccc(C)cc3n2CCCN2CCN(C)CC2)c1 [3-Methoxyphenyl; H; CH3; drawing 24, 1-[3-(4-methyl-1-piperazinyl)propyl]-2-(3-methoxybenzamido)-6-methylbenzimidazole]
inhibition in vivo at 20 mg/kg: 44%

COc1cccc(C(=O)Nc2nc3ccccc3n2CCCN(C)C)c1 [3-Methoxyphenyl; H; H; Z = N(CH3)2]
inhibition in vivo at 33 mg/kg (33 mg./kg. ip): 21%

COc1cccc(C(=O)Nc2nc3ccccc3n2CCCN2CCOCC2)c1 [3-Methoxyphenyl; H; H; drawing 23]
inhibition in vivo at 33 mg/kg (33 mg./kg. ip): 29%

COc1cccc(C(=O)Nc2nc3ccccc3n2CCCN2CCN(C)CC2)c1 [3-Methoxyphenyl; H; H; drawing 24]
inhibition in vivo at 33 mg/kg (33 mg./kg. ip): 26%

COc1cccc(C(=O)Nc2nc3cccnc3n2CCCN2CCN(C)CC2)c1 [3-Methoxyphenyl; H; H; drawing 25]
inhibition in vivo at 20 mg/kg: 25%

COc1cccc(C(=O)Nc2nc3ccccc3n2CCCN2CCCCC2)c1 [3-Methoxyphenyl; H; H; drawing 26]
inhibition in vivo at 33 mg/kg (33 mg./kg. ip): 52%

COc1cccc(C(=O)Nc2nc3cc(OC)ccc3n2CCCN2CCN(C)CC2)c1 [3-Methoxyphenyl; OCH3; H; drawing 24]
inhibition in vivo at 33 mg/kg (33 mg./kg. ip): 43%
